According to patent publication US20030170890A1, “Pathologically modified myocardial cell, production and use thereof” (priority 1999, published 2003):
No end group written: not given here.

Assays:
Type in all cases: cell-based
[1] = tested on: cardiomyocytes from the neonatal rat; assay: Effect of inhibitors on DCMAG-1 translocation in the immunofluorescence test; conditions: cells stimulated with LIF; for % dotted pattern / % filamentous pattern / % in Z-bands: ISO and ET-1 (single dosage) 48 h, without or with 30 μM LY294002, 50 μM SB 203580, 15 nM Go 6976, 50 μM PD98059, ±SEM; for effect on translocation of DCMAG-1 into the sarcomere (in words): ISO and ET-1
Method: Neonatal rat cardiomyocytes were prepared as in Example 3 and seeded in a density of 1×10^5 cells per 1.5 cm well (reaction chamber in a cell culture dish). The cell culture dishes contained 1.5 cm cover glasses (Schubert und Weiβ) coated with 1% gelatin solution. The cells were incubated after 24 hours with DMEM and subsequently in maintenance medium with or without stimulus (LIF/ISO and ET-1, concentration as above for single dosage) for 48 hours.
In order to determine the signal transduction pathways required for translocation of DCMAG-1, the stimulated cells were incubated with inhibitors, namely 30 μM LY294002 (Sigma), 50 μM SB 203580 (Sigma), 15 nM Go 6976 (Alexis) or 50 μM PD98059 (NEB) for 48 h (after 24 h, the medium and inhibitors were renewed because the activity of the inhibitors was limited to 24 h in aqueous solution).
After 48 h, the cells were fixed with 4% paraformaldehyde, permeabilized with 0.2% Triton-X100 and stained with anti-DCMAG (polyclonal, own production, 1:500) or α-actinin (as control, Sigma, 1:500) and visualized with anti-mouse or anti-rabbit Cy3 (Jackson Labs, USA) in immunofluorescence. In order to measure the effect of the inhibitors, the cells were visually classified and counted.

[2] = tested on: neonatal rat cardiomyocytes; assay: Stimulation of isolated neonatal rat cardiomyocytes, recruitment of DCMAG-1 into the sarcomere (immunofluorescence); conditions: for Sarcomere (recruitment of DCMAG-1), 1 × stimulation: 48 hours; for DCMAG-1 stain pattern of stimulated cells (in words): immunofluorescence, anti-DCMAG-1 antibody
From the text: Primary cardiomyocytes were isolated from neonatal rats to carry out a hypertrophy experiment. The rats were from one to seven days old and were sacrificed by cervical dislocation. To isolate the cardiomyocytes, the ventricles of the contracting hearts were removed and dissociated using the “Neonatal Cardiomyocyte Isolation System” (Worthington Biochemicals Corporation, Lakewood, N.J.). […] The next day, the trypsin treatment was stopped by adding a trypsin inhibitor, and then a collagenase treatment was carried out at 37° C. for 45 minutes. The cells were dissociated by pipetting, passed through a “cell strainer” (70 μm) and centrifuged at 60×g twice for 5 min. The cell pellet was then taken up in 20 ml of conventional adhesion medium. Seeding took place at a density of 6×10^4 cells/cm^2 on gelatin-coated (Sigma, Deisenhofen) tissue culture dishes or cover glasses. The next morning, the medium was removed by aspiration and, after washing with DMEM (conventional cell culture medium) twice, replaced by cultivation medium.
The cells were stimulated two to six hours after the medium was changed. This was done by treating the cardiomyocytes with various stimulants or combinations of stimulants (see Table 1) for 48 hours, followed by analysis. It was possible to observe the progress of a single stimulation on the basis of the morphological changes in the cells (hypertrophy). Besides the morphological changes, immunofluorescence analyses were also used to determine hypertrophy parameters (DCMAG-1 recruitment).
For the immunofluorescence analysis, the stimulated cardiomyocytes were washed twice with cold PBS and fixed with 3% paraformaldehyde solution in PBS for 20 minutes. After washing again with cold PBS, the cells were incubated twice with 100 mM ammonium chloride in PBS, for 10 min each time, at room temperature. This was followed by a further washing step with cold PBS and incubation with 0.2% Triton-X 100 in PBS at room temperature for 5 min. Washing twice with 0.1% gelatin in PBS was followed by incubation with the first antibody at 37° C. in a “humidity chamber” known to the skilled worker. The first antibody (against the second domain of DCMAG-1) was diluted 1/500 in incubation solution (0.5% Tween-20; 0.5% BSA; in PBS). This was followed after one hour by three washing steps with PBS at room temperature for 5 min each time. The second antibody (obtained from goat, directed against rabbit, Cy3-coupled; Dianova, Hamburg) was diluted 1/200 in incubation solution and likewise incubated with the fixed cells at 37° C. for one hour. After three further washing steps with PBS at room temperature for 5 min each time, and a brief immersion in deionized water, the preparations were covered with a layer of Histosafe (Linaris, Wertheim-Bettingen) and applied to slides. Evaluation took place under a microscope (Axiovert 100S, Cy3 filter set, Zeiss, Göttingen).
Thus, for quantitative evaluation of these stimulation experiments, the recruitment of DCMAG-1 into the sarcomere was measured and categorized as follows: […]

[3] = tested on: neonatal rat cardiomyocytes; assay: Stimulation of neonatal cardiomyocytes by phorbol ester, DCMAG-1 localization visually classified and counted; conditions: for % dotted pattern / % filamentous pattern / % in the sarcomere: 48 hours, ±SEM
Method: In these experiments, the cardiomyocytes were prepared as described above and seeded onto cover glasses. Stimulation with various concentrations of PMA was carried out for 48 hours, and the cells were fixed, stained as described above and investigated for DCMAG-1 translocation. The cells were visually classified and counted.

Rat cardiomyocytes = assay: Localization of DCMAG-1 after PMA or triple stimulation (colocalization with α-actinin / MHC); conditions: double staining with α-actinin or MHC
Method: Since PMA brings about translocation of DCMAG-1 into the sarcomeres just like activation of three signal transduction pathways via their receptors, the sarcomeric structures into which DCMAG-1 was translocated with PMA or triple stimulation was investigated. Colocalization experiments were carried out for this purpose. Rat cardiomyocytes were seeded as described above on cover glasses, and correspondingly stimulated, fixed and stained. With the stains, anti-DCMAG-1 antibody (polyclonal) was mixed with either monoclonal α-actinin (Sigma, 1:500) or monoclonal anti-myosin (heavy chain, MHC, Sigma, 1:500). The secondary antibodies used were FITC-anti-mouse (1:250) and Texas Red-anti-rabbit (1:50; both from Dianova).
Evaluation took place with the aid of a fluorescence microscope, a Fuji-CCD camera and Aida software or with the aid of a confocal microscope (Pascal from Zeiss) and LSM software (Zeiss).

[4] = single dosage: PE 100 μM, LIF 1 ng/ml, ET-1 10 nM, ISO 10 μM, IN 100 nM

Row | Compound | % dotted pattern [1] | % filamentous pattern [1] | % in Z-bands [1] | Sarcomere (recruitment of DCMAG-1), 1 × stimulation ([2]; 2 × single dosage) | Sarcomere (recruitment of DCMAG-1), 1 × stimulation ([2]; 3 × single dosage) | Sarcomere (recruitment of DCMAG-1), 1 × stimulation ([2]; 4 × single dosage) | DCMAG-1 stain pattern of stimulated cells (in words) [2] | Sarcomere (recruitment of DCMAG-1), 1 × stimulation [2, 4] | further results
1 | O=c1cc(N2CCOCC2)oc2c(-c3ccccc3)cccc12 [LY, LY294002] | 46.6 ± 5.3% | 41.2 ± 4.1% | 11.3 ± 2.0% |  |  |  |  |  | 
2 | CNC[C@H](O)c1cccc(O)c1 [PE, phenylephrine] |  |  |  | (−) (fewer than 2 cells per cover glass) | (−) (fewer than 2 cells per cover glass) | (−) (fewer than 2 cells per cover glass) | distributed uniformly over the sarcoplasm | (−) (fewer than 2 cells per cover glass) | Sarcomere (recruitment of DCMAG-1), 1 × stimulation ([2]; 5 × single dosage): (−) (fewer than 2 cells per cover glass)
3 | CCCCCCCCCCCCCC(=O)O[C@@H]1[C@@H](C)[C@@]2(O)[C@@H](C=C(CO)C[C@]3(O)C(=O)C(C)=C[C@@H]23)[C@@H]2C(C)(C)[C@]12OC(C)=O [PMA, phorbol myristate acetate] |  |  |  |  |  |  |  |  | translocation of DCMAG-1 protein (in words) ([3]; 1 nM PMA): translocated into the sarcomere; % dotted pattern ([3]; 1 nM PMA): 46.0 ± 2.0%; % filamentous pattern ([3]; 1 nM PMA): 20.0 ± 1.0%; % in the sarcomere ([3]; 1 nM PMA): 34.0 ± 3.0%; % dotted pattern ([3]; 100 nM PMA): 47.0 ± 4.0%; % filamentous pattern ([3]; 100 nM PMA): 13.0 ± 2.0%; % in the sarcomere ([3]; 100 nM PMA): 40.0 ± 2.0%; sarcomeric structure into which DCMAG-1 is translocated (Rat cardiomyocytes): translocates into the M-line
4 | CC(C)NCC(O)c1ccc(O)c(O)c1 (stereo not drawn) [ISO, isoproterenol] |  |  |  | (−) (fewer than 2 cells per cover glass) | (+) (2 to 5 cells per cover glass) | (+) (2 to 5 cells per cover glass) |  | (−) (fewer than 2 cells per cover glass) | Sarcomere (recruitment of DCMAG-1), 1 × stimulation ([2]; 5 × single dosage): (+) (2 to 5 cells per cover glass); recruitment of DCMAG-1 into the sarcomere (in words, summary of Table 1) ([2]; ISO: high concentrations): slight effect
5 | LIF: cytokine acting via the LIF receptor, assigned to the interleukin-6 family |  |  |  | (−) (fewer than 2 cells per cover glass) |  |  | distributed uniformly over the sarcoplasm | (−) (fewer than 2 cells per cover glass) | shape of stimulated cells ([2]; single stimulation): elongate shape
6 | COc1cccc(-c2cc(=O)c3ccccc3o2)c1N [PD, PD98059] | 58.5 ± 10.7% | 31.6 ± 7.4% | 10.1 ± 3.4% |  |  |  |  |  | effect on translocation of DCMAG-1 into the sarcomere (in words) [1]: reducing the translocation
7 | C[S+]([O-])c1ccc(-c2nc(-c3ccncc3)c(-c3ccc(F)cc3)[nH]2)cc1 (stereo not drawn) [SB, SB 203580] | 22.5 ± 5.3% | 35.5 ± 0.3% | 41.0 ± 4.9% |  |  |  |  |  | 
8 | ET-1: hormone / signal molecule stimulating the ETA and ETB endothelin receptors (CSCSSLMDKECVYFCHLDIIW; not fully specified (bridges); ends and bridges not checked; UniProt P05305 53-73, looked up) |  |  |  | (−) (fewer than 2 cells per cover glass) | (−) (fewer than 2 cells per cover glass) | (−) (fewer than 2 cells per cover glass) | filamentous structures | (−) (fewer than 2 cells per cover glass) | 
9 | Cn1c2ccccc2c2c3c(c4c5ccccc5n(CCC#N)c4c21)CNC3=O [Gö, Gö 6976] | 29.0 ± 2.1% | 49.0 ± 0.0% | 22.0 ± 2.1% |  |  |  |  |  | effect on translocation of DCMAG-1 into the sarcomere (in words) [1]: reducing the translocation
10 | insulin |  |  |  | (−) (fewer than 2 cells per cover glass) |  |  |  | (−) (fewer than 2 cells per cover glass) | 
